Laboratory results: US12435060B2, “Acylamino bridged heterocyclic compound, and composition and application thereof” (BEIJING SCITECH-MQ PHARMACEUTICALS LIMITED, priority 2019, dated 2025)

target: T1, RIPK1 (Homo sapiens, UniProt Q13546); experiment: Western blot determination of inhibition of RIPK1 phosphorylation in HT29 cells; assay type: cell-based; conditions: Z-VAD-FMK 20 μM, TNF-α 20 ng/mL, AT-406 100 nM, 7 hours, FIG. 1 and FIG. 2
T1 construct: the phosphorylation of intracellular RIPK1 during the induction of programmed necrosis of HT29 cells; endogenous in cells; host or cells: HT29 cells
T1 sequence (Q13546 1-671): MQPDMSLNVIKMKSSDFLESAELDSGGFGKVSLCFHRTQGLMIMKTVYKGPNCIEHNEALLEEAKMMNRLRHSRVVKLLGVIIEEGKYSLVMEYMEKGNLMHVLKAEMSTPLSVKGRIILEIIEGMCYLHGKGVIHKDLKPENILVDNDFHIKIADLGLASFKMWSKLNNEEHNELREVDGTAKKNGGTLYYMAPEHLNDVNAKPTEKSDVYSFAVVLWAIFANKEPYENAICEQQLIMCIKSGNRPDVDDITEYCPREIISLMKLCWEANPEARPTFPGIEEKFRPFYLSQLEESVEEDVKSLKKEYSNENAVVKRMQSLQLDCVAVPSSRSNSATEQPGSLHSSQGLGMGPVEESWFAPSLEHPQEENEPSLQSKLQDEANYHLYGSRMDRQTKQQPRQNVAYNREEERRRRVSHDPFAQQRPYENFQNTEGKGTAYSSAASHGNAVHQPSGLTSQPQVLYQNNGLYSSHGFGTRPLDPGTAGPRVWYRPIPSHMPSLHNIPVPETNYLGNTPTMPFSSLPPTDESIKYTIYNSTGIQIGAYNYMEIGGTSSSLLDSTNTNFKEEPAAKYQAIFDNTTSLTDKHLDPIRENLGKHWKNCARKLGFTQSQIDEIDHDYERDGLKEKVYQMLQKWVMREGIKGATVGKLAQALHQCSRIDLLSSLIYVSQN
Protocol: Assay Example 1. Western Blot Determination of Inhibition of Compounds on RIPK1 Phosphorylation in HT29 Cells
Western blot was used to determine the effect of the test compounds on the phosphorylation of intracellular RIPK1 during the induction of programmed necrosis of HT29 cells, verifying the effect of compounds on RIPK1 phosphorylation, and initially estimating the IC50 range of compounds for RIPK1 phosphorylation.
II. Experiment Procedure • 1. […] 40-50 ug of protein sample to be determined or pre-stained two-color protein molecular weight standard were added to each well. • 4. […]

Row | Structure (SMILES) | inhibition of RIPK1 phosphorylation
1 | Cc1ccccc1-c1ccnc(NC(=O)c2nnc(Cc3ccccc3)[nH]2)c1 [Example 2, 5-benzyl-N-(4-(o-methylphenyl)pyridin-2-yl)-4H-1,2,4-triazole-3-carboxamide] | directly inhibit the phosphorylation activation of RIPK1

test system: HT29 cells; experiment: Inhibition of cell necrosis (CCK8 method), induced programmed necrosis of HT29 cells; assay type: cell-based; conditions: Homo sapiens, HT-29; rescue from necrosis induced by TNF-α 20 ng/mL, AT-406 1 μM, Z-VAD-FMK 20 μM; 16-20 hours; CCK-8, OD 450 nm
Procedure, shortened: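 Rescue from programmed necrosis was scored by CCK-8 absorbance at 450 nm after 16-20 h of TNF-α (20 ng/mL), AT-406 (1 μM) and Z-VAD-FMK (20 μM) at 37 °C, 5% CO2. HT29 cells had received compound 30 min earlier across nine 4-fold dilutions (top 25000 nM final). IC50 came from % inhibition relative to uninduced and induced-only wells.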

Row | Structure (SMILES) | IC50 [nM]
2 | Cc1ccccc1-c1ccnc(NC(=O)c2nnc(Cc3ccccc3)[nH]2)c1 [Example 2, 5-benzyl-N-(4-(o-methylphenyl)pyridin-2-yl)-4H-1,2,4-triazole-3-carboxamide] | 100 to 1000
3 | Cc1ccc(NC(=O)CCC(C)(C)O)cc1-c1ccnc(NC(=O)c2nnc(Cc3ccccc3)[nH]2)c1 [Example 489, 5-benzyl-N-(4-(5-(4-hydroxy-4-methylvaleramido)-2-methylphenyl)pyridin-2-yl)-4H-1,2,4-triazole-3-carboxamide] | 100 to 1000
4 | Cc1ccc(NC(=O)CCC(C)(C)O)cc1-c1ccnc(NC(=O)c2nnc(CC3CCCC3)[nH]2)c1 [Example 490, 5-(cyclopentylmethyl)-N-(4-(5-(4-hydroxy-4-methylvaleramido)-2-methylphenyl)pyridin-2-yl)-4H-1,2,4-triazole-3-carboxamide] | ≤ 100
5 | Cc1ccc(OCCCC(C)(C)O)cc1-c1ccnc(NC(=O)c2nnc(Cc3cccc(Cl)c3F)[nH]2)c1 [Example 491, 5-(3-chloro-2-fluorobenzyl)-N-(4-(5-((4-hydroxy-4-methylpentyl)oxy)-2-methylphenyl)pyridin-2-yl)-4H-1,2,4-triazole-3-carboxamide] | 100 to 1000
6 | Cc1ccc(OCCCC(C)(C)O)cc1-c1cc(NC(=O)c2nnc(Cc3ccccc3F)[nH]2)ncc1F [Example 492, N-(5-fluoro-4-(5-((4-hydroxy-4-methylpentyl)oxy)-2-methylphenyl)pyridin-2-yl)-5-(2-fluorobenzyl)-4H-1,2,4-triazole-3-carboxamide] | ≤ 100
7 | Cc1ccc(OCCCC(C)(C)O)cc1-c1cc(NC(=O)c2nnc(CC3CCCCC3)[nH]2)ncc1F [Example 493, 5-(cyclohexylmethyl)-N-(5-fluoro-4-(5-((4-hydroxy-4-methylpentyl)oxy)-2-methylphenyl)pyridin-2-yl)-4H-1,2,4-triazole-3-carboxamide] | ≤ 100
8 | Cc1ccc(OCCCCC(C)(C)O)cc1-c1cc(NC(=O)c2nnc(Cc3ccccc3F)[nH]2)ncc1F [Example 494, N-(5-fluoro-4-(5-((5-hydroxyl-5-methylhexyl)oxy)-2-methylphenyl)pyridin-2-yl)-5-(2-fluorobenzyl)-4H-1,2,4-triazole-3-carboxamide] | ≤ 100
9 | Cc1ccc(OCCCCC(C)(C)O)cc1-c1cc(NC(=O)c2nnc(CC3CCCCC3)[nH]2)ncc1F [Example 495, 5-(cyclohexylmethyl)-N-(5-fluoro-4-(5-((5-hydroxyl-5-methylhexyl)oxy)-2-methylphenyl)pyridin-2-yl)-4H-1,2,4-triazole-3-carboxamide] | ≤ 100
10 | Cc1ccc(OCC2CCOCC2)cc1-c1cc(NC(=O)c2nnc(Cc3ccccc3F)[nH]2)ncc1F [Example 496, N-(5-fluoro-4-(2-methyl-5-((tetrahydro-2H-pyran-4-yl)methoxy)phenyl)pyridin-2-yl)-5-(2-fluorobenzyl)-4H-1,2,4-triazole-3-carboxamide] | ≤ 100
11 | Cc1ccc(OCC2CCOCC2)cc1-c1cc(NC(=O)c2nnc(CC3CCCCC3)[nH]2)ncc1F [Example 497, 5-(cyclohexylmethyl)-N-(5-fluoro-4-(2-methyl-5-((tetrahydro-2H-pyran-4-yl)methoxy)phenyl)pyridin-2-yl)-4H-1,2,4-triazole-3-carboxamide] | ≤ 100
12 | Cc1ccc(OCCC2CCOCC2)cc1-c1cc(NC(=O)c2nnc(Cc3ccccc3F)[nH]2)ncc1F [Example 498, N-(5-fluoro-4-(2-methyl-5-(2-(tetrahydro-2H-pyran-4-yl)ethoxy)phenyl)pyridin-2-yl)-5-(2-fluorobenzyl)-4H-1,2,4-triazole-3-carboxamide] | ≤ 100
13 | Cc1ccc(OCCC2CCOCC2)cc1-c1cc(NC(=O)c2nnc(CC3CCCCC3)[nH]2)ncc1F [Example 499, N-(5-fluoro-4-(2-methyl-5-(2-(tetrahydro-2H-pyran-4-yl)ethoxy)phenyl)pyridin-2-yl)-5-(cyclohexylmethyl)-4H-1,2,4-triazole-3-carboxamide] | ≤ 100
14 | CC(C)(O)CCCCOc1ccc(F)c(-c2ccnc(NC(=O)c3nnc(Cc4ccccc4F)[nH]3)c2)c1 [Example 500, N-(4-(2-fluoro-5-((5-hydroxyl-5-methylhexyl)oxy)phenyl)pyridin-2-yl)-5-(2-fluorobenzyl)-4H-1,2,4-triazole-3-carboxamide] | 100 to 1000
15 | CC(C)(O)CCCOc1ccc(Cl)c(-c2ccnc(NC(=O)c3nnc(Cc4ccc(F)c(Cl)c4F)[nH]3)c2)c1 [Example 501, 5-(3-chloro-2,4-difluorobenzyl)-N-(4-(2-chloro-5-((4-hydroxy-4-methylpentyl)oxy)phenyl)pyridin-2-yl)-4H-1,2,4-triazole-3-carboxamide] | 100 to 1000
16 | CC(C)(O)CCCCOc1ccc(Cl)c(-c2cc(NC(=O)c3nnc(CC4CCCCC4)[nH]3)ncc2F)c1 [Example 502, N-(4-(2-chloro-5-((5-hydroxyl-5-methylhexyl)oxy)phenyl)-5-fluoropyridin-2-yl)-5-(cyclohexylmethyl)-4H-1,2,4-triazole-3-carboxamide] | ≤ 100
17 | CC(C)(O)CCCOc1ccc(Cl)c(-c2ccnc(NC(=O)c3nnc(Cc4cc(C5CC5)ccc4F)[nH]3)c2)c1 [Example 503, N-(4-(2-chloro-5-((4-hydroxy-4-methylpentyl)oxy)phenyl)pyridin-2-yl)-5-(5-cyclopropyl-2-fluorobenzyl)-4H-1,2,4-triazole-3-carboxamide] | 1000 to 10000
18 | CC(C)(O)CCCOc1ccc(Cl)c(-c2ccnc(NC(=O)c3nnc(Cc4cc(-c5ccccc5)ccc4F)[nH]3)c2)c1 [Example 504, N-(4-(2-chloro-5-((4-hydroxy-4-methylpentyl)oxy)phenyl)pyridin-2-yl)-5-((4-fluoro-[1,1′-biphenyl]-3-yl)methyl)-4H-1,2,4-triazole-3-carboxamide] | 100 to 1000
